# What was measured:
# [1] = molecular target: T1, Serine/threonine-protein kinase TAO1 (Homo sapiens) (UniProt Q7L7X3); assay: Selectivity interaction (Ambit KINOMEscan and KiNATiv profiling in Jurkat cells) EUB0000090b TAOK1; assay type: cell-based; conditions: at 1 µM
# T1 sequence (whole entry): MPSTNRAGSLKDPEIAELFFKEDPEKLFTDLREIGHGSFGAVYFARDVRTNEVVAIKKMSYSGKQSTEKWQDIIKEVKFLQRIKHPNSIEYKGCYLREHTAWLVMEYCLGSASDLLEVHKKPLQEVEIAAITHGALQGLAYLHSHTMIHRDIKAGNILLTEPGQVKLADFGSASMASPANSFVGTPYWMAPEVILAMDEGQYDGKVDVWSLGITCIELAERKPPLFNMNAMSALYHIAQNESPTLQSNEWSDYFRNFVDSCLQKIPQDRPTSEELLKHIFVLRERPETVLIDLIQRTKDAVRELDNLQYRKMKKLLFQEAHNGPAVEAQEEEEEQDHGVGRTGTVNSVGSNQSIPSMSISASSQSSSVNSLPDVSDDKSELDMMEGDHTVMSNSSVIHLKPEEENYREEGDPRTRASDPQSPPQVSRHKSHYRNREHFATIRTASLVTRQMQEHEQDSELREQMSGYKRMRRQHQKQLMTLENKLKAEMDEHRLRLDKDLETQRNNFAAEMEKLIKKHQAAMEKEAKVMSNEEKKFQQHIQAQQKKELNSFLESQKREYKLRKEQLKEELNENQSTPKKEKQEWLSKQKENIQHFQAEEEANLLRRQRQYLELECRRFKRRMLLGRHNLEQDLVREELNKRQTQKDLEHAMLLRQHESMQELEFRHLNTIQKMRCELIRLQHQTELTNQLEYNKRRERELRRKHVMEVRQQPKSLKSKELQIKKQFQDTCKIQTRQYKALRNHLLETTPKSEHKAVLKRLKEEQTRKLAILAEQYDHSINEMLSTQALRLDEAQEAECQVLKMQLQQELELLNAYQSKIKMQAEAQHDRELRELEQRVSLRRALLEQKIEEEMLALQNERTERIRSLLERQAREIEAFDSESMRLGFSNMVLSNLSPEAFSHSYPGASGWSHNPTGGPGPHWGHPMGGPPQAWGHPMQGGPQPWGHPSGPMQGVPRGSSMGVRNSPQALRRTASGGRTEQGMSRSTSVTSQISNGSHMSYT
# [2] = molecular target: Mitogen-activated protein kinase kinase kinase 11 (Homo sapiens) (UniProt Q16584); assay: Selectivity interaction (ActivX KiNativ screen (kinase selectivity in THP-1 cell lysates)) EUB0000639a MAP3K11; assay type: subcellular; conditions: lysate, at 0.01 µM
# Chain of Mitogen-activated protein kinase kinase kinase 11 (Homo sapiens) (Q16584 whole entry, looked up): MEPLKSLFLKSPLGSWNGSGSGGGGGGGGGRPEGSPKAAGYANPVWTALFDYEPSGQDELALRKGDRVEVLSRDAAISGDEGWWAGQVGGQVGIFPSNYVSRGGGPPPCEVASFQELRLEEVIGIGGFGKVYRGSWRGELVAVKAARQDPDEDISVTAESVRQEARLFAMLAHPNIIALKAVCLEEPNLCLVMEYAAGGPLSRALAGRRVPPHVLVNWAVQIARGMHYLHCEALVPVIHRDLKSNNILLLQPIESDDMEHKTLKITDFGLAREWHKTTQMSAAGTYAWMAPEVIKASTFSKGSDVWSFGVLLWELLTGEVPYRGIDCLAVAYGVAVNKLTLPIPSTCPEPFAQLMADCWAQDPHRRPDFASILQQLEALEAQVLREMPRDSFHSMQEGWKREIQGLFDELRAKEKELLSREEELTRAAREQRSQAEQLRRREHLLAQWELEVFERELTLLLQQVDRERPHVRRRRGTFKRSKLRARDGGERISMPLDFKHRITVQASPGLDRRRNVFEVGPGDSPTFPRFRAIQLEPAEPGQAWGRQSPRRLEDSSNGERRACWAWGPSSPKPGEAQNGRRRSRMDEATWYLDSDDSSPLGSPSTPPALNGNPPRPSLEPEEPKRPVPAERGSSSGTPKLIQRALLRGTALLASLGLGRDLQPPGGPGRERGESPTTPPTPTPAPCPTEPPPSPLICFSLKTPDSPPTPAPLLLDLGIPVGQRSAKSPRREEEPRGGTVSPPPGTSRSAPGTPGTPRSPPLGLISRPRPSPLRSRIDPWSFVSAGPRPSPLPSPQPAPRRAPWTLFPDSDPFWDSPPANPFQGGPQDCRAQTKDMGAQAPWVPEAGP
# [3] = molecular target: T2, TGF-beta receptor type-1 (Homo sapiens) (UniProt P36897); assay: Selectivity interaction (KinomeScan (DiscoverX)) EUB0000045b TGFBR1
# T2 sequence (whole entry): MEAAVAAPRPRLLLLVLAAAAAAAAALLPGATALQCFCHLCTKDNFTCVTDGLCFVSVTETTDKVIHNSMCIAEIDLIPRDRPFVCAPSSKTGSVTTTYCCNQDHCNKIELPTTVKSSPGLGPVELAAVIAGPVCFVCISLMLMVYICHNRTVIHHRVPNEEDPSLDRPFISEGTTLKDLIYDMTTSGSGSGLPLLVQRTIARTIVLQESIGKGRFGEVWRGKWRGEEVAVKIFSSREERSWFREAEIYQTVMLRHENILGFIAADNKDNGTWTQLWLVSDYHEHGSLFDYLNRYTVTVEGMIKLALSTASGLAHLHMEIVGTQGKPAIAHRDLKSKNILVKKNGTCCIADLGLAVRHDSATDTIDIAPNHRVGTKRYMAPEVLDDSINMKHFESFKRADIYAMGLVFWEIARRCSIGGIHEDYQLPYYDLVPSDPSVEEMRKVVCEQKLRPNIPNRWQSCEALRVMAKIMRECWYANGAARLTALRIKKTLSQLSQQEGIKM
# [4] = molecular target: Glycogen synthase kinase-3 beta (Homo sapiens, UniProt P49841); assay: Selectivity interaction (KinomeScan (DiscoverX)) EUB0000666a GSK3B; conditions: at 10 µM
# Chain of Glycogen synthase kinase-3 beta (P49841 whole entry, looked up): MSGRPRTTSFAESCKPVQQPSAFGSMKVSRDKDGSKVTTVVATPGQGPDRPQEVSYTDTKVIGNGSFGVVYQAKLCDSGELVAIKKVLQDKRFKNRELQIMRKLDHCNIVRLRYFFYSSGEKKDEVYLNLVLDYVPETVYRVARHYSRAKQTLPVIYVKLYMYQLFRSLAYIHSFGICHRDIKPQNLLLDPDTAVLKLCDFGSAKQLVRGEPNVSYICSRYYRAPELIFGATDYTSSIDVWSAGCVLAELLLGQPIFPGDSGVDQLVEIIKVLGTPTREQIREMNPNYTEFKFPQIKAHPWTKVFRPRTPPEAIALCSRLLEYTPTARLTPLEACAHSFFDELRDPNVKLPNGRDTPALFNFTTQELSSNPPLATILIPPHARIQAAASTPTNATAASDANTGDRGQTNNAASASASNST
# [5] = molecular target: T3, Serine/threonine-protein kinase D2 (Homo sapiens) (UniProt Q9BZL6); assay: Selectivity interaction (KinomeScan (DiscoverX)) EUB0000666a PRKD2; conditions: at 10 µM
# T3 sequence (whole entry): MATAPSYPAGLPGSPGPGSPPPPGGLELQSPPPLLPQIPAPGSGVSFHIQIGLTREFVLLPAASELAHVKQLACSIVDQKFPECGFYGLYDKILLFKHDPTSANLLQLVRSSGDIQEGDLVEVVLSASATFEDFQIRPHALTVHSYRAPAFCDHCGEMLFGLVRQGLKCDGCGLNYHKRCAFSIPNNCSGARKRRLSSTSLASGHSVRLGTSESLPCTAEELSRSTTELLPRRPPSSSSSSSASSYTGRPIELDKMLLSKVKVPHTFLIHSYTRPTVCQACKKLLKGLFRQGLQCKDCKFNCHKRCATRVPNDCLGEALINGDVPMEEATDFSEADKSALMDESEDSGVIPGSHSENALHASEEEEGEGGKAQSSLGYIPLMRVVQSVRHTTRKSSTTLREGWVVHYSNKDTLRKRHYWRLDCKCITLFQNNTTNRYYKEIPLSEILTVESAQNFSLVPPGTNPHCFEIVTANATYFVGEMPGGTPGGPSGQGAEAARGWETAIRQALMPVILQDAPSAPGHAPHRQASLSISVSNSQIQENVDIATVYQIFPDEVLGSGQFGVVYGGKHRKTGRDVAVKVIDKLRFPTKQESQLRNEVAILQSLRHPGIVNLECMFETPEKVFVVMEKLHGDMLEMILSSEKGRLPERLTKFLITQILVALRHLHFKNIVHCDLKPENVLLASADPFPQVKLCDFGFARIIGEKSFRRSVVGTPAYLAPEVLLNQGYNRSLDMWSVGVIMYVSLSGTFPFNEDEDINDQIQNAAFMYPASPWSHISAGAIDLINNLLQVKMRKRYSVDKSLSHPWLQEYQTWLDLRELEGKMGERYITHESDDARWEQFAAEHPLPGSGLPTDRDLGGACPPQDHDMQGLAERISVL
smiles,measurement,setting,value
CN(C)C/C=C/C(=O)Nc1ccc(C(=O)N2CCCC(Nc3ncc(Cl)c(-c4c[nH]c5ccccc45)n3)C2)cc1 (stereo unspecified),% of control,[1],93%
CC[C@@H]1[C@H](F)C(=O)N[C@@H]1COc1nccc2cc(C(N)=O)c(OC)cc12 [ZIMLOVISERTIB],% of inhibition,[2],4.9%
C=CC(=O)Nc1cc(-n2c(=O)ccc3cnc4ccc(-c5ccc(NS(C)(=O)=O)cc5)cc4c32)ccc1C,% of control,[3]; at 1 µM,97%
same,% of control,[3]; at 10 µM,100%
O=C(NOC[C@H](O)CO)c1ccc(F)c(F)c1Nc1ccc(I)cc1F,% of control,[4],68%
same,% of control,[5],100%

# — ChEMBL document CHEMBL5465560, “Selectivity Literature for EUbOPEN Chemogenomic Library” (2024)
